Patent publication US20180320177A1, “COMPOSITIONS AND METHODS FOR THE TREATMENT OF LIVER FIBROSIS” (UNIVERSITY OF CONNECTICUT, priority 2015, published 2018)

Molecular target: T1, HMGB2 (Homo sapiens, UniProt P26583)
T1 sequence (P26583 1-209): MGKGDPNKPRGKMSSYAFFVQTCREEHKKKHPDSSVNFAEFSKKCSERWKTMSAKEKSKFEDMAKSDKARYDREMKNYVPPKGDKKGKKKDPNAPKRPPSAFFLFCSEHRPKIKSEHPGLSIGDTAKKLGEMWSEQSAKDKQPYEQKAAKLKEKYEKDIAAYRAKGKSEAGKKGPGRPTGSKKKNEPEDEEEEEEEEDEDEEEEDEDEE
Experiment: Western blot of HMGB2 protein in LX-2 and Huh7 cells treated with ICM
Assay type: cell-based
Set-up: endogenous in cells; host or cells: LX-2, Huh7
Conditions: for HMGB2 protein: fresh media every day for 3 days (FIG. 18 left)
Protocol: Western Blotting: Total protein lysates were prepared from livers and cells in lysis buffer containing 50 mM Tris, pH 8.0, 1% Nonidet™ P-40, 150 mM NaCl, 0.5% sodium deoxycholate, 0.1% SDS with protease inhibitors (Thermo Fisher Scientific) and subjected to immunoblotting. Nuclear and cytoplasmic subcellular fractions were prepared using NE-PER nuclear and cytoplasmic extraction reagents (Pierce) according to the manufacturer's instructions. The blot was incubated with a primary antibody, followed by a secondary antibody conjugated to horseradish peroxidase. ECL kit (Pierce) was used to detect the reactivity. The following antibodies were obtained from Cell Signaling Technology: HMGB2, HMGB1, AKT, p-AKT, mTOR, p-mTOR, ERK1/2, pERK1/2, Raptor, Rictor, p53, p21, p-Bad, Smad4, p-Smad2/3, Lamin A/C, a-SMA, MMP2, MMP9, TIMP1, RhoA, Rho-GTP, Cdc42, Rac1/2/3. Anti-HA antibody and anti-beta actin antibody were purchased from Sigma and Santa Cruz Biotechnology, respectively.
Cell Lines The LX-2 human stellate cell line was maintained in Dulbecco's Modified Eagle's Medium (DMEM) supplemented with 2% fetal bovine serum (FBS), 100 IU/ml penicillin, and 100 μg/ml streptomycin. Human hepatocellular carcinoma (HCC) MHCC97H cells were maintained in DMEM supplemented with 10% FBS, 100 IU/ml penicillin, and 100 μg/ml streptomycin, 1 mM HEPES, 1 mM sodium pyruvate, 2 mM L-glutamine. Tumor-initiating (TIC) cells were obtained from Dr. Hidekazu Tsukamoto at University of Southern California and were maintained in 1:1 DMEM:F12 supplement with 100 U/ml penicillin and 100 μg/ml streptomycin, 2 mM glutamine, 20 ng/ml mouse EGF, 10 nM dexamethasone, 1× embryomax nucleotides. All the cells were maintained at 37° C. humidified atmosphere with 5% CO2. TIC cells were infected with Hmgb2 shRNA lentivirus for 48 hr, and treated with 500 ng/ml puromycin for 2 weeks. The stable cells were used for migration and invasion assay, as well as western blot.

- HMGB2 protein (Huh7 cells): dose-dependently decreased
- cytoplasm HMGB2 protein (LX2 cells (FIG. 5C)): reduces cytoplasm HMGB2 protein
- HMGB2 protein (LX-2 cells): dose-dependently decreased
Compound: CC1(C)Oc2cc(O)ccc2C2C1=CCn1c(=O)n(-c3ccccc3)c(=O)n12 (stereo not drawn) [ICM, inflachromene]
